Measured values from patent US8772319B2 (priority 2004, dated 2014).
Read-outs that look alike come from different tables or passages of the source.

Assays:
[1] = target: T1, human norepinephrine transporter (hNET) (Homo sapiens, UniProt P23975); assay: biochemical; conditions: [125I]RTI-55, read-out: NET binding affinity Ki
[2] = target: T2, human serotonin transporter (hSERT) (Homo sapiens, UniProt P31645); assay: biochemical; conditions: [125I]RTI-55, read-out: SERT binding affinity Ki
[3] = target: T3, human dopamine transporter (hDAT) (Homo sapiens, UniProt Q01959); assay: biochemical; format: binding
T3 sequence (Q01959 whole entry): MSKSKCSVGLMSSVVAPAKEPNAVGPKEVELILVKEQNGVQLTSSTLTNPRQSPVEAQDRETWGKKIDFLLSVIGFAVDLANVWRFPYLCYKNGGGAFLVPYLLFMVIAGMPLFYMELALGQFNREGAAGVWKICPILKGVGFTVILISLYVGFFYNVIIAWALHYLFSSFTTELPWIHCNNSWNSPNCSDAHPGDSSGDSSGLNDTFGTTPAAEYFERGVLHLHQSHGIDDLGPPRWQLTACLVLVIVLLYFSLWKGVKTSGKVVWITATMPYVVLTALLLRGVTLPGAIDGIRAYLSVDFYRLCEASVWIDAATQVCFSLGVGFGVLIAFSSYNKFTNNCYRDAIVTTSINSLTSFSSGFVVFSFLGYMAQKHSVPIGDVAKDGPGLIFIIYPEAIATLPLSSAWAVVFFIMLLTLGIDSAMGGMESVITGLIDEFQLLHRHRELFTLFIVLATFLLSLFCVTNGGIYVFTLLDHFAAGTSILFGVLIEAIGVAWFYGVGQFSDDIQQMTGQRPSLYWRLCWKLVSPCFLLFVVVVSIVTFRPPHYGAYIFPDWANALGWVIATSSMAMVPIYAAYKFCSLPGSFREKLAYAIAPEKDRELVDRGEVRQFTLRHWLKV

[4] = target: T3, human dopamine transporter (hDAT); assay: cell-based
[5] = target: T1, human norepinephrine transporter (hNET); assay: cell-based; conditions: read-out: Reuptake Inhibition [3H]NE IC50
[6] = target: T2, human serotonin transporter (hSERT); assay: cell-based
[7] = Reuptake Inhibition [3H]DA IC50, Table 6
[8] = Reuptake Inhibition [3H]5-HT IC50, Table 6
[9] = Reuptake Inhibition [3H]DA IC50, Table 1-1
[10] = Reuptake Inhibition [3H]5-HT IC50, Table 1-1
[11] = Table 4-1, read-out: Reuptake Inhibition [3H]5-HT IC50
[12] = Reuptake Inhibition [3H]DA IC50, Table 2-1
[13] = Reuptake Inhibition [3H]5-HT IC50, Table 2-1
[14] = Table 4, [125I]RTI-55, read-out: DAT binding affinity Ki
[15] = Table 4-1, read-out: Reuptake Inhibition [3H]DA IC50

T1 sequence (P23975 whole entry): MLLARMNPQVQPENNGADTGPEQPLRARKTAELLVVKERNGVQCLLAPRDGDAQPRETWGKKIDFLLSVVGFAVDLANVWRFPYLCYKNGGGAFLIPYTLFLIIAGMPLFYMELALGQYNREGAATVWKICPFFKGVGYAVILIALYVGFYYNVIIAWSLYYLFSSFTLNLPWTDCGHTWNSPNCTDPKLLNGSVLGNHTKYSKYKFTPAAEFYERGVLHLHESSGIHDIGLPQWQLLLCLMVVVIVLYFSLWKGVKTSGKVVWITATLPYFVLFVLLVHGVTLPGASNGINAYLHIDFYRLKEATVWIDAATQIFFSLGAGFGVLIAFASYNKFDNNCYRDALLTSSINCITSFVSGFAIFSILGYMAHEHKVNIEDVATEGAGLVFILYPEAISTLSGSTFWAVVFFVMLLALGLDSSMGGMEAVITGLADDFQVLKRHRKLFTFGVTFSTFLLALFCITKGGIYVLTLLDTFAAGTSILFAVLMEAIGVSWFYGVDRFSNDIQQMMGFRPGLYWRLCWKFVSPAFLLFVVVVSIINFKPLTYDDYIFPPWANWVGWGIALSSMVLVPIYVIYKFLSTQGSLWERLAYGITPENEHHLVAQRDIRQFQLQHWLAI
T2 sequence (P31645 whole entry): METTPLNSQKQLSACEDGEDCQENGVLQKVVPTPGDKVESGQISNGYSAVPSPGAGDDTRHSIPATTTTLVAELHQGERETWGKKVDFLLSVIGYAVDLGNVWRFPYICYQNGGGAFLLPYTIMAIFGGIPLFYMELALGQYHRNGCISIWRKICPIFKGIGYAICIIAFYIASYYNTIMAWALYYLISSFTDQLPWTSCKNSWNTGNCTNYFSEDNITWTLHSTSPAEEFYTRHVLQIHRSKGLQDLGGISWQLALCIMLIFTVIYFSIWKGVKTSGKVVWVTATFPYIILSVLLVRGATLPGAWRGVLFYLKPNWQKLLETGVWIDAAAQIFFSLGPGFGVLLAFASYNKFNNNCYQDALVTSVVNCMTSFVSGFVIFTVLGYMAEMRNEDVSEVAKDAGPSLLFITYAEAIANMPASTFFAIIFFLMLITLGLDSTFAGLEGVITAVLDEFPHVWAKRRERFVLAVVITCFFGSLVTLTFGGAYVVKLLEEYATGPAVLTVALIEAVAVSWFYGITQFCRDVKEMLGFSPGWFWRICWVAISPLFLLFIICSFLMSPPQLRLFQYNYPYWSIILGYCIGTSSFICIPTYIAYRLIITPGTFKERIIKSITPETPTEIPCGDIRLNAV

CC(=O)c1ccc(N2CCN(CCCCOC(c3ccc(F)cc3)c3ccc(F)cc3)CC2)cc1 [Compound 37, 1-[4-[4-[4-[Bis(4-fluorophenyl)methoxy]butyl]piperazin-1-yl]phenyl]ethanone]
Ki ([1]; Table 5, oxalate salts): 112 ± 38 nM
Ki ([2]; Table 5, oxalate salts): 0.042 ± 0.016 µM
Ki [3]: 27 ± 8.6 nM
Binding Ratios NET/DAT ([3]; Table 5): 4.1
Binding Ratios SERT/DAT ([3]; Table 5): 1.6
IC50 [4, 7]: 3.01 ± 0.0086 µM
Discrimination Ratios (DR) [3H]DA reuptake/DAT binding ([4]; Table 6): 111.5
IC50 ([5]; Table 6): 33 ± 15 nM
IC50 [6, 8]: 1230 ± 540 nM

O=C(Nc1ccc(F)cc1)NC1CCN(CCCCOC(c2ccc(F)cc2)c2ccc(F)cc2)CC1 [Compound 17]
Ki ([1]; Table 3): 430 ± 100 nM
Ki ([2]; Table 3): 0.279 ± 0.057 µM
Ki [3]: 32 ± 1.4 nM
Binding Ratios NET/DAT ([3]; Table 3): 13.4
Binding Ratios SERT/DAT ([3]; Table 3): 8.7
IC50 ([4]; Reuptake Inhibition [3H]DA IC50, Table 3-1): 7 ± 1.79 µM
Discrimination Ratios [3H]DA reuptake/DAT binding ([4]; Table 3-1): 219
IC50 ([5]; Table 3-1): 2530 nM
IC50 ([6]; Reuptake Inhibition [3H]5-HT IC50, Table 3-1): 7140 nM

O=C(Nc1ccc(F)cc1)N1CCN(CCCCOC(c2ccc(F)cc2)c2ccc(F)cc2)CC1 [Compound 4]
Ki ([1]; Table 1): 133 ± 18 nM
Ki ([2]; Table 1): 0.014 ± 0.006 µM
Ki [3]: 60 ± 8 nM
Binding Ratios NET/DAT ([3]; Table 1): 2.2
Binding Ratios SERT/DAT ([3]; Table 1): 0.2
IC50 [4, 9]: 0.009 ± 0.003 µM
Discrimination Ratios [3H]DA reuptake/DAT binding ([4]; Table 1-1): 0.2
IC50 ([5]; Table 1-1): 45 ± 17 nM
IC50 [6, 10]: 68 ± 28 nM

O=C(NCC1(c2ccccc2)CCN(CCCCOC(c2ccc(F)cc2)c2ccc(F)cc2)CC1)Nc1ccc(F)cc1 [Compound 22]
Ki ([2]; Table 4): 0.234 µM
Ki [3]: 83 nM
Binding Ratios SERT/DAT ([3]; Table 4): 2.8
Discrimination Ratios [3H]DA reuptake/DAT binding ([4]; Table 4-1): 120.5
IC50 ([4]; Table 4-1, bound given in μM, read-out: Reuptake Inhibition [3H]DA IC50): > 10 µM
IC50 [6, 11]: 367 ± 62 nM

Fc1ccc(C(OCCCCN2CCNCC2)c2ccc(F)cc2)cc1 [Compound 3]
Ki ([1]; Table 5, oxalate salts): 3400 ± 1500 nM
Ki ([2]; Table 5, oxalate salts): 1.9 ± 0.33 µM
Binding Ratios NET/DAT ([3]; Table 5): 5.7
Binding Ratios SERT/DAT ([3]; Table 5): 3.2
Ki ([3]; Table 5, [125I]RTI-55, oxalate salts, read-out: DAT binding affinity Ki): 600 ± 190 nM
Discrimination Ratios (DR) [3H]DA reuptake/DAT binding ([4]; Table 6): 1.7
IC50 ([4]; Table 6, read-out: Reuptake Inhibition [3H]DA IC50): 1 ± 0.19 µM
IC50 ([5]; Table 6): 850 ± 270 nM
IC50 ([6]; Table 6, read-out: Reuptake Inhibition [3H]5-HT IC50): 2170 ± 78 nM

O=C(Nc1ccc(-c2ccccc2)cc1)N1CCN(CCCCOC(c2ccc(F)cc2)c2ccc(F)cc2)CC1 [Compound 8]
Ki ([1]; Table 1): 6940 nM
Ki ([2]; Table 1, bound given in μM): > 10 µM
Ki ([2]; Table 1): > 10 µM
Ki [3]: 67 nM
Binding Ratios NET/DAT ([3]; Table 1): 104
Binding Ratios SERT/DAT ([3]; Table 1): >149
IC50 [4, 9]: 0.419 ± 0.034 µM
Discrimination Ratios [3H]DA reuptake/DAT binding ([4]; Table 1-1): 6.3
IC50 ([5]; Table 1-1): 56.3 ± 9.4 nM
IC50 [6, 10]: 1020 ± 320 nM

O=C(NCc1ccc(F)cc1)NCC1CCCN(CCCCOC(c2ccc(F)cc2)c2ccc(F)cc2)C1 (stereo not drawn) [Compound 13]
Ki ([1]; Table 2): 60 nM
Ki ([2]; Table 2): 0.545 ± 0.194 µM
Ki [3]: 203 ± 68 nM
Binding Ratios NET/DAT ([3]; Table 2): 0.3
Binding Ratios SERT/DAT ([3]; Table 2): 2.7
IC50 [4, 12]: 0.085 ± 0.039 µM
Discrimination Ratios [3H]DA reuptake/DAT binding ([4]; Table 2-1): 0.4
IC50 ([5]; Table 2-1): 136 ± 32 nM
IC50 [6, 13]: 177 ± 18 nM

Fc1ccc(C(OCCCCN2CCN(c3cccc(Cl)c3)CC2)c2ccc(F)cc2)cc1 [Compound 33, 1-(3-Chlorophenyl)-4-[4-[bis(4-fluorophenyl)methoxy]butyl]piperazine]
Binding Ratios NET/DAT ([3]; Table 5): 1.7
Binding Ratios SERT/DAT ([3]; Table 5): 0.8
Discrimination Ratios (DR) [3H]DA reuptake/DAT binding ([4]; Table 6): 9.5

NCC1CCCN(CCCCOC(c2ccc(F)cc2)c2ccc(F)cc2)C1 (stereo not drawn) [Compound 10]
Ki ([1]; Table 2): 537 ± 112 nM
Ki ([2]; Table 2): 0.883 µM
Ki [3]: 113 nM
Binding Ratios NET/DAT ([3]; Table 2): 4.8
Binding Ratios SERT/DAT ([3]; Table 2): 7.8
IC50 [4, 12]: 0.031 µM
Discrimination Ratios [3H]DA reuptake/DAT binding ([4]; Table 2-1): 0.3
IC50 [6, 13]: 571 ± 127 nM

O=C(NCC1CCCN(CCCCOC(c2ccc(F)cc2)c2ccc(F)cc2)C1)Nc1ccc(F)cc1 (stereo not drawn) [Compound 12]
Ki ([1]; Table 2): 99 nM
Ki ([2]; Table 2): 0.198 µM
Ki [3]: 93 nM
Binding Ratios NET/DAT ([3]; Table 2): 1.1
Binding Ratios SERT/DAT ([3]; Table 2): 2.1
IC50 [4, 12]: 0.092 ± 0.024 µM
Discrimination Ratios [3H]DA reuptake/DAT binding ([4]; Table 2-1): 1.0
IC50 ([5]; Table 2-1): 20 nM
IC50 [6, 13]: 123 ± 16 nM

Fc1ccc(C(OCCCCN2CCN(Cc3ccc4c(c3)OCO4)CC2)c2ccc(F)cc2)cc1 [Compound 41, 1-Benzo[1,3]dioxol-5-ylmethyl-4-[4-[bis(4-fluorophenyl)methoxy]butyl]piperazine]
Ki ([1]; Table 5, oxalate salts): 55 ± 18 nM
Ki ([2]; Table 5, oxalate salts): 0.059 ± 0.022 µM
Ki [3]: 33 ± 13 nM
Binding Ratios NET/DAT ([3]; Table 5): 1.7
Binding Ratios SERT/DAT ([3]; Table 5): 1.8
IC50 [4, 7]: 1 ± 0.06 µM
Discrimination Ratios (DR) [3H]DA reuptake/DAT binding ([4]; Table 6): 30.3
IC50 ([5]; Table 6): 43 ± 19 nM
IC50 [6, 8]: 3280 ± 610 nM

O=[N+]([O-])c1ccc(N2CCN(CCCCOC(c3ccc(F)cc3)c3ccc(F)cc3)CC2)cc1 [Compound 38, 1-[4-Nitrophenyl]-4-[1-[bis(4-fluorophenyl)methoxy]-4-butyl]piperazine]
Ki ([1]; Table 5, oxalate salts): 239 ± 13 nM
Ki ([2]; Table 5, oxalate salts): 0.154 ± 0.044 µM
Ki [3]: 60 ± 19 nM
Binding Ratios NET/DAT ([3]; Table 5): 4.0
Binding Ratios SERT/DAT ([3]; Table 5): 2.6
IC50 [4, 7]: 2.35 ± 0.54 µM
Discrimination Ratios (DR) [3H]DA reuptake/DAT binding ([4]; Table 6): 39.2
IC50 ([5]; Table 6): 230 ± 110 nM
IC50 [6, 8]: 390 ± 130 nM

O=C(NCC1CCCN(CCCCOC(c2ccc(F)cc2)c2ccc(F)cc2)C1)c1cccc(C(F)(F)F)c1 (stereo not drawn) [Compound 11]
Ki ([1]; Table 2): 49 ± 21 nM
Ki ([2]; Table 2): 0.496 ± 0.177 µM
Ki [3]: 403 ± 81 nM
Binding Ratios NET/DAT ([3]; Table 2): 0.1
Binding Ratios SERT/DAT ([3]; Table 2): 1.2
IC50 [4, 12]: 0.046 µM
Discrimination Ratios [3H]DA reuptake/DAT binding ([4]; Table 2-1): 0.1
IC50 ([5]; Table 2-1): 53 ± 3 nM
IC50 [6, 13]: 511 nM

NCC1(c2ccccc2)CCN(CCCCOC(c2ccc(F)cc2)c2ccc(F)cc2)CC1 [Compound 21]
Ki ([2]; Table 4): 0.347 ± 0.152 µM
Binding Ratios SERT/DAT ([3]; Table 4): 2.5
Ki [3, 14]: 140 ± 53 nM
Discrimination Ratios [3H]DA reuptake/DAT binding ([4]; Table 4-1): 1.1
IC50 [4, 15]: 0.155 µM
IC50 [6, 11]: 337 ± 128 nM

O=C(CCl)NCC1(c2ccccc2)CCN(CCCCOC(c2ccc(F)cc2)c2ccc(F)cc2)CC1 [Compound 26]
Ki ([2]; Table 4): 0.58 ± 0.177 µM
Binding Ratios SERT/DAT ([3]; Table 4): 1.8
Ki [3, 14]: 316 ± 77 nM
Discrimination Ratios [3H]DA reuptake/DAT binding ([4]; Table 4-1): 1.5
IC50 [4, 15]: 0.486 ± 0.25 µM
IC50 [6, 11]: 270 nM

O=C(CCN1C(=O)C=CC1=O)NCC1(c2ccccc2)CCN(CCCCOC(c2ccc(F)cc2)c2ccc(F)cc2)CC1 [Compound 25]
Ki ([2]; Table 4): 6.4 ± 2.68 µM
Binding Ratios SERT/DAT ([3]; Table 4): 7.7
Ki [3, 14]: 827 ± 197 nM
Discrimination Ratios [3H]DA reuptake/DAT binding ([4]; Table 4-1): 1.2
IC50 [4, 15]: 0.988 ± 0.305 µM
IC50 [6, 11]: 3120 ± 1470 nM

Fc1ccc(C(OCCCCN2CCN(c3ccc(F)cc3)CC2)c2ccc(F)cc2)cc1 [Compound 31, 1-(4-Fluorophenyl)-4-[4-[bis(4-fluorophenyl)methoxy]butyl]piperazine]
Binding Ratios NET/DAT ([3]; Table 5): 7.8
Binding Ratios SERT/DAT ([3]; Table 5): 1.3
Discrimination Ratios (DR) [3H]DA reuptake/DAT binding ([4]; Table 6): 23

CC(=O)NCC1(c2ccccc2)CCN(CCCCOC(c2ccc(F)cc2)c2ccc(F)cc2)CC1 [Compound 23]
Ki ([2]; Table 4): 0.258 ± 0.076 µM
Binding Ratios SERT/DAT ([3]; Table 4): 1.5
Ki [3, 14]: 172 ± 14 nM
Discrimination Ratios [3H]DA reuptake/DAT binding ([4]; Table 4-1): 0.8
IC50 [4, 15]: 0.129 ± 0.032 µM
IC50 [6, 11]: 359 ± 78 nM
